Values of other authors, collected in patent US20090298852A1, “Pellet-form slow-release preparation for vertigo” (priority 2005, published 2009).

solubility in water: approximately 2 mg/100 ml
SMILES: C(=C\c1ccccc1)/CN1CCN(C(c2ccccc2)c2ccccc2)CC1 [cinnarizine, 1-benzhydryl-4-trans-cinnamylpiperazine]
